Patent publication US5939523A, “Purification of dalbaheptide antibiotics by isoelectric focusing” (Gruppo Lepetit SpA, priority 1995, dated 1999)

Test: Analytical immobilized pH gradient (IPG) gels for determining pI values
Type: physicochemical
Settings: analytical IPG gel, pH interval 8.0 to 9.0, mixture of 8M urea and 1% CHAPS
Text: Preparation of Analytical Immobilized pH Gradient (IPG) Gels, for Determining the pI Values of the Main Component and of the Impurities
Gel dimension: 25×10 cm, 0, 5 mm thick; pH interval: 7.0 to 10.0.
The IPG ranges are set in a 5% T, 4% C polyacrylamide matrix, according to the preparation recipe disclosed in Ref. 110. After preparing the two limiting, acidic and basic mixtures, they are titrated (with a weak acid and a weak base) to pH values close to neutrality. This is important in order to ensure uniform polymerization and efficient monomer conversion throughout the preformed pH gradient. Upon gel washing in distilled water (3×30 min), all added titrants (as well as catalysts and ungrafted monomers) are efficiently removed. The gels are then equilibrated for 30 min in 2% glycerol solution, dried in air and reswollen in a mixture of 8M urea and 3.5% CHAPS, overnight. The sample is applied in surface wells at the anodic gel side in concentrations from 80 to 600 μg/track. […]
For exactly determining the pI value of the amide derivative of factor B0 and factor B1, the above procedure is repeated under the same conditions, in the pH interval from 8.0 to 9.0 using a mixture of 8M urea and 1% CHAPS. The so determined pI value of the amide derivative of factor B0 is 8.56, whilst the pI value of the amide derivative of factor B1 is 8.40.

| Substance | pI value |
| --- | --- |
| 6^B -decarboxy-6^B -(hydroxymethyl)-N^63 -3-(dimethyl-amino)propyl amide derivative of antibiotic A40926 factor B0 [amide derivative of factor B0] | 8.56 |
| 6^B -decarboxy-6^B -(hydroxymethyl)-N^63 -3-(dimethyl-amino)propyl amide derivative of antibiotic A40926 factor B1 [amide derivative of factor B1] | 8.40 |
